In US20170319532A1, “METHODS AND FORMULATIONS FOR TREATMENT AND/OR PREVENTION OF BLOOD-ASSOCIATED DISORDERS” (TWi Biotechnology, Inc., priority 2016, published 2017):

System: hemophilic arthropathy rat model (knee joint swelling)
Test: Joint swelling in rat hemophilic arthropathy model induced by intraarticular injection of whole blood
Type: in vivo, female Lewis rats
Settings: for % change of joint swelling: left vs right knee oval area, p<0.05
Description: A total of 8 female Lewis rats were used for hemophilia arthropathy (HA) study. The animals were specific pathogen free and approximately 6 to 7 weeks old upon start dosing.
Animals were randomized into 2 groups on Day 1 and started to receive diacerein or vehicle treatments throughout the study of 10 days. On Day 4 and Day 8, treatment was performed 1 hour before HA model induction. For HA induction, under anesthesia with 1.5-5% isoflurane (inhalation anesthesia machine, Matrix vip 3000 isoflurane), blood was collected from orbital sinus of each rat and immediately, 0.1 ml of whole blood was intraarticular injected into the cavity of left knee using syringe with 27G needle. The blood was anti-coagulated with EDTA-2K. Body weight and joint swelling measurement were assessed 4 hours post-dosing every day.
The longitudinal and transverse axes of both knee joints were measured with calipers on Day 1 (pre-dose), Day 4 (pre-dose), and Day 4-10 (4 hours post-dose). The oval area of knee joints and % change of joint swelling was calculated using the following formula:
Oval area=longitudinal axis×transverse axis×3.14×0.25% change of joint swelling=(Oval area left−Oval area right)/Oval area right×100%

CC(=O)Oc1cccc2c1C(=O)c1c(OC(C)=O)cc(C(=O)O)cc1C2=O [diacerein, 4,5-bis (acetyloxy) 9,10-dihydro-4,5-dihydroxy-9,10-dioxo-2-anthracenecarboxylic acid]
% change of joint swelling (Day 8, the second hemophilia arthropathy induction, vehicle 22.57±3.77%): 10.02±3.54%
% change of joint swelling (Day 10, end of the study, vehicle 13.51±4.78%): 0.50±3.28%
joint swelling (qualitative) (hemophilic arthropathy rat model, compared with vehicle): suppressed joint swelling
